Source: publication PMC11279551, “Pharmacokinetics and Enterohepatic Circulation of 2-(Quinoline-8-carboxamido)benzoic Acid (2-QBA) in Mice” (Pharmaceutics, 2024)
Like-named read-outs stand apart in the source and are kept apart here.

What was measured:
[1] = Pharmacokinetics after PO administration in mice; format: in vivo; conditions: for BA: vs IV AUCinf at 1 mg/kg; for AUC(0-t): read-out: AUC24h; for Cmax: read-out: Cmax,1; for Tmax: po
Experimental: Male ICR mice (7 weeks old, […]; Samtako, Osan, Korea) were acclimated to the animal facility at Kyungpook National University for one week with free access to animal chow and water. In the per oral administration (PO) groups, the mice were fasted for 14–16 h prior to the administration of 2-QBA.
After the PO administration of 2-QBA (2 mg/kg in 5 mL of saline containing 10% DMSO) using an oral gavage for 10 mice, blood samples were collected at 0.25, 0.75, 2, and 8 h from 5 mice and at 0.5, 1, 4, and 24 h from another 5 mice. Ten mice in each group were administered 5 mg/kg or 15 mg/kg of 2-QBA using an oral gavage and blood was drawn using the same protocol described above. All blood samples were centrifuged at 13,000× g for 1 min and the supernatant plasma (30 μL) was stored at −80 °C until the analysis of the 2-QBA. For the analysis of 2-QBA in the plasma samples, 120 μL of IS solution (berberine 1 ng/mL in acetonitrile) was added to plasma samples (30 μL). The mixture was vigorously vortexed for 5 min and then centrifuged at 13,000× g for 5 min. The supernatant was transferred to autosampler vials. Subsequently, a 3 μL aliquot was injected into the LC-MS/MS system.
WinNonlin 5.1 software (Pharsight Co., Mountain View, CA, USA) was used to calculate the pharmacokinetic parameters. AUClast and AUCinf indicate the areas under the plasma concentration curve from 0 h to the last sample and from 0 h to infinity, respectively; these were estimated using the linear trapezoidal method. T1/2 is the elimination half-life, which is estimated from the elimination coefficient (k) (i.e., 0.693/k), and MRT is the mean residence time. CL is the total clearance, which is calculated by dividing the dose by AUCinf. Vdss is the volume of the distribution at a steady state, calculated from MRTxCL. CLrenal and CLfeces are calculated by dividing the amount excreted in urine and feces by the AUCinf, respectively. CLmetabolism is calculated by subtracting CLrenal and CLfeces from CL. Cmax and Tmax are the maximum plasma concentration and time to reach Cmax, respectively. BA is calculated by dividing the dose-normalized AUCinf for PO administration (AUCinf/PO dose) by the dose-normalized AUCinf for IV administration (AUCinf/IV dose). All data are expressed as the mean ± standard deviation (SD).

[2] = Urinary and fecal excretion of 2-QBA and 2-QBA-Glu with vehicle or AC treatment (β-glucuronidase treatment); format: in vivo; conditions: mice; for urinary excretion rate: PO 2 mg/kg
Experimental: In total, […] were administered 2-QBA (1 mg/kg/3 mL) via the tail vein. Two hours after the 2-QBA dosing, AC (0.8 g/kg/5 mL in distilled water) or a vehicle (5 mL/kg distilled water) was administrated via oral gavage. Each group included ten mice who were randomly divided into two groups for sparse sampling. Blood collection was performed at 0.083, 0.5, 2, and 8 h from 5 mice and at 0.25, 1, 4, and 24 h from another 5 mice, as described previously. Four mice treated with either AC (0.8 g/kg) or the vehicle 2 h after the 2-QBA IV dosing (1 mg/kg) were returned to a metabolic cage to collect the urine and feces samples. The urine and feces samples were collected for 72 h.
Next, 2-QBA was administered PO (2 mg/kg/5 mL) with or without AC (0.8 g/kg in 3 mL of DW), which was administered via oral gavage 2 h after the 2-QBA dosing. Each group included eight mice who were randomly divided into two groups for sparse sampling. Blood collection was performed at 0.25, 0.75, 2, and 8 h from 4 mice and at 0.5, 1, 4, and 24 h from another 4 mice, as described previously. Four mice treated with either AC (0.8 g/kg) or vehicle 2 h after the 2-QBA PO dosing (2 mg/kg) were returned to a metabolic cage to collect the urine and feces samples. The urine and feces samples were collected for 72 h.
Aliquots of plasma samples (30 μL) were added to 120 μL of IS solution. The mixture was vigorously vortexed for 5 min and then centrifuged at 13,000× g for 5 min. The supernatant was transferred to autosampler vials. Subsequently, a 3 μL aliquot was injected into the LC-MS/MS system. Aliquots (30 μL) of urine and 10% feces homogenate samples were added to 60 μL of 150 mM sodium acetate buffer (pH 5.0) in the presence or absence of β-glucuronidase (900 unit) at 37 °C for 2 h. […]
Then, we quantified the 2-QBA and 2-QBA-Glu from the urine and fecal samples obtained from the mice after IV or PO administration of 2-QBA. In addition, the amount of 2-QBA-Glu was calculated by subtracting the control 2-QBA from the total 2-QBA with β-glucuronidase treatment. […]

[3] = male, ICR, mouse, plasma, PO 2 mg/kg
[4] = male, ICR, mouse, plasma, PO 5 mg/kg
[5] = male, ICR, mouse, plasma, PO 15 mg/kg

- mean absorption time (MRTPO–MRTIV) [1]: 8.02 h
- AUC24h/dose ([1]; PO 2 mg/kg): 684.2 ± 340.3 ng·h/mL/mg/kg
- AUCinf/dose ([1]; PO 2 mg/kg): 712.7 ± 348.0 ng·h/mL/mg/kg
- BA ([1]; PO 2 mg/kg): 68.3%
- AUC24h/dose ([1]; PO 5 mg/kg): 702.9 ± 169.2 ng·h/mL/mg/kg
- AUCinf/dose ([1]; PO 5 mg/kg): 873.7 ± 186.9 ng·h/mL/mg/kg
- BA ([1]; PO 5 mg/kg): 83.7%
- AUC24h/dose ([1]; PO 15 mg/kg): 705.5 ± 182.3 ng·h/mL/mg/kg
- AUCinf/dose ([1]; PO 15 mg/kg): 734.7 ± 176.3 ng·h/mL/mg/kg
- BA ([1]; PO 15 mg/kg): 70.4%
- AUC(0-inf) [1, 3]: 1430 ± 696 ng·h/mL
- MRT [1, 3]: 12 ± 4.91 h
- half-life [1, 3]: 7.82 ± 1.76 h
- AUC(0-t) [1, 3]: 1370 ± 680 ng·h/mL
- Cmax [1, 3]: 283 ± 174 ng/mL
- AUC(0-inf) [1, 4]: 4370 ± 934 ng·h/mL
- MRT [1, 4]: 13.7 ± 3.14 h
- half-life [1, 4]: 9.91 ± 1.92 h
- AUC(0-t) [1, 4]: 3510 ± 846 ng·h/mL
- Cmax [1, 4]: 752 ± 319 ng/mL
- AUC(0-inf) [1, 5]: 11000 ng·h/mL
- MRT [1, 5]: 7.04 ± 0.76 h
- half-life [1, 5]: 5.58 ± 1.24 h
- AUC(0-t) [1, 5]: 10600 ng·h/mL
- Cmax [1, 5]: 2460 ± 696 ng/mL
- bioavailability ([1]; male, ICR, mouse, plasma, PO 2.0, 5.0 and 15 mg/kg, read-out: absolute oral bioavailability (BA) range): 68.3 to 83.7%
- Tmax ([1]; male, ICR, mouse, plasma, 2 mg/kg, PO 2 mg/kg, read-out: Tmax,1): 0.2 ± 0.11 h
- Tmax ([1]; male, ICR, mouse, plasma, 2 mg/kg, PO 2 mg/kg, read-out: Tmax,2): ~5.6 h
- Tmax ([1]; male, ICR, mouse, plasma, 5 mg/kg, PO 5 mg/kg, read-out: Tmax,1): 0.25 h
- Tmax ([1]; male, ICR, mouse, plasma, 15 mg/kg, PO 15 mg/kg, read-out: Tmax,1): 0.3 ± 0.11 h
- Tmax ([1]; male, ICR, mouse, plasma, PO 2-15 mg/kg, read-out: Tmax,1 (range over doses)): 0.2 to 0.3 h
- Tmax ([1]; male, ICR, mouse, plasma, PO 2-15 mg/kg, read-out: Tmax,2 (range over doses)): 3.5 to 5.6 h
- dose excreted ([2]; ICR, mouse, faeces, 1 mg/kg, IV injection of 2-QBA, read-out: fecal recovery rate): < 5%
- urinary excretion rate ([2]; with AC (0.8 g/kg)): 17.5 % of the administered PO dose
- urinary excretion rate ([2]; without AC): 27.7 % of the administered PO dose
SMILES: O=C(O)c1ccccc1NC(=O)c1cccc2cccnc12 [2-QBA, 2-(quinoline-8-carboxamido)benzoic acid]
